# Measured values reported in PMC7181660, “A novel specific PERK activator reduces toxicity and extends survival in Huntington's disease models” (Scientific Reports, 2020).
# Like-named read-outs stand apart in the source and are kept apart here.
# Legend:
# Experiment in all cases: biochemical
# Format in all cases: biochemical
# [1] = target: panel of 391 kinases (Homo sapiens, UniProt Q7KZI7); conditions: MARK2/PAR-1Ba, MK-28 1 µM, ATP 1 µM
# [2] = target: panel of 391 kinases (Homo sapiens, UniProt P57059); conditions: SIK1, MK-28 1 µM, ATP 1 µM
# [3] = target: panel of 391 kinases (Homo sapiens, UniProt Q16620); conditions: TRKB, MK-28 1 µM, ATP 1 µM
# [4] = target: panel of 391 kinases (Homo sapiens, UniProt Q96PF2); conditions: TSSK2, MK-28 1 µM, ATP 1 µM
# [5] = target: panel of 391 kinases (Homo sapiens, UniProt Q13131); conditions: compound at 1 µM, single dose in duplicates, 1 µM ATP; for remaining activity at 1 µM: read-out: % Enzyme Activity (relative to DMSO controls)
# [6] = target: panel of 391 kinases (Homo sapiens, UniProt P11362); conditions: FGFR1, MK-28 1 µM, ATP 1 µM
# [7] = target: panel of 391 kinases (Homo sapiens, UniProt Q8TDX7); conditions: NEK7, MK-28 1 µM, ATP 1 µM
# [8] = target: panel of 391 kinases (Homo sapiens, UniProt Q02750); conditions: MEK1, MK-28 1 µM, ATP 1 µM
# [9] = target: panel of 391 kinases (Homo sapiens, UniProt Q15118); conditions: kinase PDK1/PDHK1, compound at 1 µM, single dose in duplicates, 1 µM ATP
# [10] = target: panel of 391 kinases (Homo sapiens, UniProt Q9H0K1); conditions: SIK2, MK-28 1 µM, ATP 1 µM
# [11] = target: panel of 391 kinases (Homo sapiens, UniProt P31749); conditions: AKT1, MK-28 1 µM, ATP 1 µM
# [12] = target: panel of 391 kinases (Homo sapiens, UniProt Q8IY84); conditions: NIM1, MK-28 1 µM, ATP 1 µM
# [13] = target: panel of 391 kinases (Homo sapiens, UniProt Q14012); conditions: CAMK1a, MK-28 1 µM, ATP 1 µM
# [14] = target: panel of 391 kinases (Homo sapiens, UniProt P08631); conditions: HCK, MK-28 1 µM, ATP 1 µM
# [15] = target: panel of 391 kinases (Homo sapiens, UniProt P54764); conditions: EPHA4, MK-28 1 µM, ATP 1 µM
# [16] = target: panel of 391 kinases (Homo sapiens, UniProt Q5VT25); conditions: MRCKa/CDC42BPA, MK-28 1 µM, ATP 1 µM
# [17] = target: panel of 391 kinases (Homo sapiens, UniProt Q9H2G2); conditions: SLK/STK2, MK-28 1 µM, ATP 1 µM
# [18] = target: panel of 391 kinases (Homo sapiens, UniProt Q15375); conditions: EPHA7, MK-28 1 µM, ATP 1 µM
# [19] = target: panel of 391 kinases (Homo sapiens, UniProt O95835); conditions: LATS1, MK-28 1 µM, ATP 1 µM
# [20] = target: panel of 391 kinases (Homo sapiens, UniProt Q96RG2); conditions: PASK, MK-28 1 µM, ATP 1 µM
# [21] = target: panel of 391 kinases (Homo sapiens, UniProt P49674); conditions: CK1epsilon, MK-28 1 µM, ATP 1 µM
# [22] = target: panel of 391 kinases (Homo sapiens, UniProt Q9Y2K2); conditions: SIK3, MK-28 1 µM, ATP 1 µM
# [23] = target: panel of 391 kinases (Homo sapiens, UniProt P07332); conditions: FES/FPS, MK-28 1 µM, ATP 1 µM
# [24] = target: panel of 391 kinases (Homo sapiens, UniProt P36897); conditions: ALK5/TGFBR1, MK-28 1 µM, ATP 1 µM
# [25] = target: panel of 391 kinases (Homo sapiens, UniProt O15146); conditions: MUSK, MK-28 1 µM, ATP 1 µM
# [26] = target: panel of 391 kinases (Homo sapiens, UniProt Q9Y572); conditions: RIPK3, MK-28 1 µM, ATP 1 µM
# [27] = read-out: % Enzyme Activity (relative to DMSO controls)
smiles,measurement,setting,value
CN(/N=C\c1ccc(O)c(O)c1)c1nc(-c2ccccc2)cc(-c2ccccc2)n1 [MK-28],% Enzyme Activity (relative to DMSO controls),[1],98.73%
same,remaining activity at 1 µM,[1]; [27],106%
same,% Enzyme Activity (relative to DMSO controls),[2],83.98%
same,remaining activity at 1 µM,[2]; [27],85%
same,% Enzyme Activity (relative to DMSO controls),[3],96.28%
same,remaining activity at 1 µM,[3]; [27],96.3%
same,% Enzyme Activity (relative to DMSO controls),[4],76.99%
same,remaining activity at 1 µM,[4]; [27],77.3%
same,% Enzyme Activity (relative to DMSO controls),[5]; kinase AMPK(A1/B1/G1),95.82%
same,remaining activity at 1 µM,[5]; kinase AMPK(A1/B1/G1),96.3%
same,% Enzyme Activity (relative to DMSO controls),[5]; kinase AMPK(A1/B1/G2),98.77%
same,remaining activity at 1 µM,[5]; kinase AMPK(A1/B1/G2),101%
same,% Enzyme Activity (relative to DMSO controls),[5]; kinase AMPK(A1/B1/G3),86.51%
same,remaining activity at 1 µM,[5]; kinase AMPK(A1/B1/G3),87%
same,% Enzyme Activity (relative to DMSO controls),[5]; kinase AMPK(A1/B2/G1),106.30%
same,remaining activity at 1 µM,[5]; kinase AMPK(A1/B2/G1),108%
same,% Enzyme Activity (relative to DMSO controls),[6],103.69%
same,remaining activity at 1 µM,[6]; [27],105%
same,% Enzyme Activity (relative to DMSO controls),[7],97.32%
same,remaining activity at 1 µM,[7]; [27],98.3%
same,% Enzyme Activity (relative to DMSO controls),[8],99.18%
same,remaining activity at 1 µM,[8]; [27],100%
same,% Enzyme Activity (relative to DMSO controls),[9],100.80%
same,remaining activity at 1 µM,[9]; [27],101%
same,% Enzyme Activity (relative to DMSO controls),[10],93.76%
same,remaining activity at 1 µM,[10]; [27],97.5%
same,% Enzyme Activity (relative to DMSO controls),[11],95.66%
same,remaining activity at 1 µM,[11]; [27],96.7%
same,% Enzyme Activity (relative to DMSO controls),[12],98.00%
same,remaining activity at 1 µM,[12]; [27],104%
same,% Enzyme Activity (relative to DMSO controls),[13],77.40%
same,remaining activity at 1 µM,[13]; [27],77.7%
same,% Enzyme Activity (relative to DMSO controls),[14],73.97%
same,remaining activity at 1 µM,[14]; [27],75.6%
same,% Enzyme Activity (relative to DMSO controls),[15],100.54%
same,remaining activity at 1 µM,[15]; [27],101%
same,% Enzyme Activity (relative to DMSO controls),[16],93.74%
same,remaining activity at 1 µM,[16]; [27],95.3%
same,% Enzyme Activity (relative to DMSO controls),[17],100.63%
same,remaining activity at 1 µM,[17]; [27],102%
same,% Enzyme Activity (relative to DMSO controls),[18],96.58%
same,remaining activity at 1 µM,[18]; [27],98.6%
same,% Enzyme Activity (relative to DMSO controls),[19],99.22%
same,remaining activity at 1 µM,[19]; [27],101%
same,% Enzyme Activity (relative to DMSO controls),[20],91.44%
same,remaining activity at 1 µM,[20]; [27],95.4%
same,% Enzyme Activity (relative to DMSO controls),[21],82.77%
same,remaining activity at 1 µM,[21]; [27],83.4%
same,% Enzyme Activity (relative to DMSO controls),[22],101.97%
same,remaining activity at 1 µM,[22]; [27],105%
same,% Enzyme Activity (relative to DMSO controls),[23],91.44%
same,remaining activity at 1 µM,[23]; [27],95.1%
same,% Enzyme Activity (relative to DMSO controls),[24],96.61%
same,remaining activity at 1 µM,[24]; [27],97.7%
same,% Enzyme Activity (relative to DMSO controls),[25],95.79%
same,remaining activity at 1 µM,[25]; [27],99.1%
same,% Enzyme Activity (relative to DMSO controls),[26],100.16%
same,remaining activity at 1 µM,[26]; [27],101%
